Reference: patent US6734139B1, “N-aryl-uracile-based herbicides” (priority 1999, dated 2004)
Values joined by “and” are separate entries in the source; they are usually repeats but may differ in a detail not shown here. Equal values may be shown once. Read-outs that look alike come from different tables or passages of the source. Values belong to the compound of their own block, whether it stands above or below them.

Tests used:
Format in all cases: in vivo
weeds = assay: Pre-emergence test (herbicidal action against weeds, Colby)
Source text: (§1) The expected action for a given combination of two herbicides can be calculated as follows (cf. COLBY, S. R.: “Calculating synergistic and antagonistic responses of herbicide combinations”, Weeds 15, Pages 20-22, 1967):
(§2) If the actual damage exceeds the calculated value, the combination has a superadditive effect, that is to say a synergistic effect.
The theoretically expected activity for a given combination of three herbicides can likewise be found in the literature mentioned above.
(§3) Solvent: 2 to 3 parts by weight of acetone or N,N-dimethyl-formamide
(§4) Emulsifier: 1 part by weight of alkylaryl polyglycol ether
(§5) To produce a suitable preparation of active compound, 1 part by weight of active compound is mixed with the stated amount of solvent, the stated amount of emulsifier is added and the concentrate is diluted with water to the desired concentration. Formulated products are dissolved in water and then diluted with water to the desired concentration.
(§6) The solutions of the other mixing components (active compounds or safeners) are prepared analogously. The separately prepared solutions of the various mixing components are then combined and, if appropriate, additional substances (formulation auxiliaries, additives, etc.) are added and, if appropriate, water is added to prepare the desired dilution.
(§7) Seeds of the test plants are sown in standard soil. After 24 hours, the soil is sprayed with the preparation of active compound such that the particular amount of active compound desired in each case is applied per unit area. The concentration of active compound in the spray liquor is chosen such that the particular amount of active compound desired in each case is applied in 500 litres of water per hectare. The containers with the test plants are kept in a greenhouse at controlled temperature and controlled illumination until evaluation.
(§8) After three weeks, the degree of damage to the plants is rated in % damage in comparison to the development of the untreated control. The figures denote
(§9) 0%=no effect/no damage (like untreated control)

Alopecurus = assay: Pre-emergence test (herbicidal action, Colby): Alopecurus
Polygonum = assay: Pre-emergence test (herbicidal action, Colby): Polygonum
Digitaria = assay: Pre-emergence test (herbicidal action, Colby): Digitaria
Abutilon = assay: Pre-emergence test (herbicidal action, Colby): Abutilon
Datura = assay: Pre-emergence test (herbicidal action, Colby): Datura
Winter wheat = assay: Post-emergence test in barley and wheat: winter wheat
Description: as §5, §6, §8, §9

Durum wheat = assay: Post-emergence test in barley and wheat: durum wheat
Description: as §5, §6, §8, §9

maize = assay: Pre-emergence test in maize (crop plant compatibility)
Description: as §3, §4, §5, §6, §7, §9

Summer wheat = assay: Post-emergence test in barley and wheat: summer wheat; settings: for damage, Summer wheat (5 days) / damage, Summer wheat (21 days) / damage, Summer wheat (22 days): 0.1% Renex-36
Description: as §5, §6, §9

Winter barley = assay: Post-emergence test in barley and wheat: winter barley; settings: for damage, Winter barley (21 days): 0.1% Renex-36
Description: as §5, §6, §9

Ipomoea = assay: Pre-emergence test (herbicidal action, Colby): Ipomoea; settings: 60 g of a.i./ha
Stellaria = assay: Pre-emergence test (herbicidal action, Colby): Stellaria
Matricaria = assay: Pre-emergence test (herbicidal action, Colby): Matricaria
Cyperus = assay: Pre-emergence test (herbicidal action, Colby): Cyperus
Solanum = assay: Post-emergence test (herbicidal action, Colby): Solanum; settings: single active compound at 15 g of a.i./ha
Source text: as §1, §2, §5, §6, §8, §9

Veronica = assay: Post-emergence test (herbicidal action, Colby): Veronica; settings: single active compound at 8 g of a.i./ha
Source text: as §1, §2, §5, §6, §8, §9

Setaria = assay: Pre-emergence test (herbicidal action, Colby): Setaria; settings: 250 g of a.i./ha
Echinochloa = assay: Pre-emergence test (herbicidal action, Colby): Echinochloa; settings: 250 g of a.i./ha
Galium = assay: Post-emergence test (herbicidal action, Colby): Galium; settings: 125 g of a.i./ha

Compound: CCNc1nc(Cl)nc(NC(C)C)n1 [atrazine, 6-chloro-4-ethylamino-2-isopropylamino-1,3,5-triazine]
- Avena (pre-emergence test) (weeds; Table A25, 500 g of a.i./ha): 80
- Bromus (pre-emergence test) (weeds; Table A25, 500 g of a.i./ha): 70
- Cyperus (pre-emergence test) (weeds; Table A25, 500 g of a.i./ha): 50
- Lolium (pre-emergence test) (weeds; Table A25, 500 g of a.i./ha): 90

Compound: CS(=O)(=O)c1cc(C(F)(F)F)ccc1C(=O)c1cnoc1C1CC1 [isoxaflutole, (5-cyclopropyl-isoxazol-4-yl)-(2-methylsulphonyl-4-trifluoromethyl-phenyl)-methanone]
- Alopecurus (Alopecurus; 60 g of a.i./ha): 40%
- Polygonum (Polygonum; 30 g of a.i./ha): 0%
- Digitaria (Digitaria; 30 g of a.i./ha): 90%
- pest or weed control at 30 g/ha (Abutilon; 30 g of a.i./ha, read-out: Abutilon): 80%
- Avena (pre-emergence test) (weeds; Table A26, 30 g of a.i./ha): 30
- Cassia (pre-emergence test) (weeds; Table A26, 30 g of a.i./ha): 70
- Digitaria (pre-emergence test) (weeds; Table A26, 30 g of a.i./ha): 80
- Echinochloa (pre-emergence test) (weeds; Table A26, 30 g of a.i./ha): 30
- Lolium (pre-emergence test) (weeds; Table A26, 30 g of a.i./ha): 30
- Matricaria (pre-emergence test) (weeds; Table A26, 30 g of a.i./ha): 20
- Setaria (pre-emergence test) (weeds; Table A26, 30 g of a.i./ha): 30
- Echinochloa (pre-emergence test) (weeds; Table A26, 60 g of a.i./ha): 40
- Lolium (pre-emergence test) (weeds; Table A26, 60 g of a.i./ha): 50
- Matricaria (pre-emergence test) (weeds; Table A26, 60 g of a.i./ha): 40
- Setaria (pre-emergence test) (weeds; Table A26, 60 g of a.i./ha): 30
- Datura (Datura; 60 g of a.i./ha): 90%

Compound: CCCN(CCC)c1c([N+](=O)[O-])cc(C(F)(F)F)cc1[N+](=O)[O-] [trifluralin, 1-amino-2,6-dinitro-N,N-di-propyl-4-trifluoromethyl-benzene]
- Cassia (pre-emergence test) (weeds; Table A24, 250 g of a.i./ha): 80
- Lolium (pre-emergence test) (weeds; Table A24, 250 g of a.i./ha): 95
- Setaria (pre-emergence test) (weeds; Table A24, 250 g of a.i./ha): 95
- Echinochloa (pre-emergence test) (weeds; Table A24, 500 g of a.i./ha): 95
- Veronica (pre-emergence test) (weeds; Table A24, 500 g of a.i./ha): 95

- Winter wheat (5 days) (Winter wheat; 4 g of a.i./ha): 20%
- Winter wheat (20 days) (Winter wheat; 4 g of a.i./ha): 10%
- Winter wheat (22 days) (Winter wheat; 4 g of a.i./ha): 20%
- Winter wheat (5 days) (Winter wheat; 8 g of a.i./ha): 30%
- Winter wheat (20 days) (Winter wheat; 8 g of a.i./ha): 10%
- Winter wheat (22 days) (Winter wheat; 8 g of a.i./ha): 20%
- Winter wheat (5 days) (Winter wheat; 15 g of a.i./ha): 30%
- Winter wheat (20 days) (Winter wheat; 15 g of a.i./ha): 20%
- Durum wheat (5 days) (Durum wheat; 15 g of a.i./ha): 20%
- Durum wheat (21 days) (Durum wheat; 15 g of a.i./ha): 20%
- Durum wheat (5 days) (Durum wheat; 30 g of a.i./ha): 30%
- Durum wheat (21 days) (Durum wheat; 30 g of a.i./ha): 20%
- Maize (7 days) (maize; Table A30, 60 g of a.i./ha): 30%
- Maize (7 days) (maize; Table A30, 90 g of a.i./ha): 60%
- Maize (12 days) (maize; Table A30, 90 g of a.i./ha): 60%
- Maize (21 days) (maize; Table A30, 90 g of a.i./ha): 30%
- Summer wheat (5 days) (Summer wheat; 15 g of a.i./ha): 40%
- Summer wheat (21 days) (Summer wheat; 15 g of a.i./ha): 30%
- Summer wheat (5 days) (Summer wheat; 30 g of a.i./ha): 50%
- Summer wheat (21 days) (Summer wheat; 30 g of a.i./ha): 40%
- Winter barley (5 days) (Winter barley; 4 g of a.i./ha): 30%
- Winter barley (21 days) (Winter barley; 4 g of a.i./ha): 50%
- Winter barley (22 days) (Winter barley; 4 g of a.i./ha): 10%
- Winter barley (5 days) (Winter barley; 8 g of a.i./ha): 40%
- Winter barley (21 days) (Winter barley; 8 g of a.i./ha): 50%
- Winter barley (22 days) (Winter barley; 8 g of a.i./ha): 20%
- Winter barley (5 days) (Winter barley; 15 g of a.i./ha): 60% and 50%
- Winter barley (5 days) (Winter barley; 30 g of a.i./ha): 50%
- Winter barley (21 days) (Winter barley; 30 g of a.i./ha): 20%
Compound: CCS(=O)(=O)Nc1cc(-n2c(=O)cc(C(F)(F)F)n(C)c2=O)c(F)cc1C(N)=S [I-6, 2-(ethylsulphonylamino)-5-fluoro-4-[3-methyl-2,6-dioxo-4-trifluoromethyl-3,6-dihydro-1(2H)-pyrimidinyl]-benzenecarbothioamide]
- damage, Winter wheat (21 days) (Winter wheat; 15 g of a.i./ha, 21 days, 0.1% Renex-36): 10%
- damage, Durum wheat (5 days) (Durum wheat; 15 g of a.i./ha, 0.1% Renex-36): 20%
- damage, Durum wheat (5 days) (Durum wheat; 30 g of a.i./ha, 0.1% Renex-36): 30%
- damage, Durum wheat (22 days) (Durum wheat; 30 g of a.i./ha, 22 days, 0.1% Renex-36): 20%
- damage, Summer wheat (5 days) (Summer wheat; 15 g of a.i./ha): 50%
- damage, Summer wheat (21 days) (Summer wheat; 15 g of a.i./ha): 20%
- damage, Summer wheat (22 days) (Summer wheat; 15 g of a.i./ha): 20%
- damage, Summer wheat (5 days) (Summer wheat; 30 g of a.i./ha): 60%
- damage, Summer wheat (21 days) (Summer wheat; 30 g of a.i./ha): 30%
- damage, Summer wheat (22 days) (Summer wheat; 30 g of a.i./ha): 30%
- damage, Winter barley (21 days) (Winter barley; 15 g of a.i./ha): 20%
- damage, Winter barley (21 days) (Winter barley; 30 g of a.i./ha): 30%

Compound: COc1cc(OC)nc(NC(=O)NS(=O)(=O)c2cc(NC=O)ccc2C(=O)N(C)C)n1 [foramsulfuron, 2-[[[[(4,6-dimethoxy-2-pyrimidinyl)-amino]-carbonyl]-amino]-sulphonyl]-4-formylamino-N,N-dimethyl-benzamide]
- Cassia (pre-emergence test) (weeds; Table A27, 15 g of a.i./ha): 50
- Abutilon (pre-emergence test) (weeds; Table A27, 30 g of a.i./ha): 50
- Polygonum (pre-emergence test) (weeds; Table A27, 30 g of a.i./ha): 40

Compound: CS(=O)(=O)c1ccc(C(=O)C2C(=O)CCCC2=O)c(Cl)c1 [sulcotrione, 2-(2-chloro-4-methylsulphonyl-benzoyl)-cyclohexane-1,3-dione]
- Ipomoea (Ipomoea): 80%
- Stellaria (Stellaria; 60 g of a.i./ha): 80%
- Matricaria (Matricaria; 30 g of a.i./ha): 40%
- pest or weed control at 30 g/ha (Abutilon; Abutilon, read-out: Abutilon): 70%
- pest or weed control at 60 g/ha (Abutilon; Abutilon, read-out: Abutilon): 80%
- Cyperus (Cyperus; 30 g of a.i./ha): 90%
- Datura (Datura; 30 g of a.i./ha): 50%

- Maize (7 days) (maize; Table A32, 60 g of a.i./ha): 20%
- Maize (12 days) (maize; Table A32, 60 g of a.i./ha): 30%
- Maize (21 days) (maize; Table A32, 60 g of a.i./ha): 18%
- Maize (7 days) (maize; Table A32, 90 g of a.i./ha): 60%
- Maize (12 days) (maize; Table A32, 90 g of a.i./ha): 70%
- Maize (21 days) (maize; Table A32, 90 g of a.i./ha): 64%
Compound: CCS(=O)(=O)N(C(=O)c1cccs1)c1cc(-n2c(=O)cc(C(F)(F)F)n(N)c2=O)c(F)cc1C#N [I-5, N-[5-(3-amino-2,6-dioxo-4-trifluoromethyl-3,6-dihydro-1(2H)-pyrimidinyl)-2-cyano-4-fluoro-phenyl]-N-(2-thienyl-carbonyl)-1-ethanesulphonamide]

Compound: COCc1cnc(C2=NC(C)(C(C)C)C(=O)N2)c(C(=O)O)c1 (stereo not drawn) [imazamox, 2-(4,5-dihydro-4-methyl-4-isopropyl-5-oxo-1H-imidazol-2-yl)-5-methoxymethyl-pyridine-3-carboxylic acid]
- damage, Solanum (Solanum): 0%
- damage, Veronica (Veronica): 0%

Compound: CCOCN(C(=O)CCl)c1c(C)cccc1CC [acetochlor, 2-chloro-N-(ethoxymethyl)-N-(2-ethyl-6-methyl-phenyl)-acetamide]
- Stellaria (Stellaria; 125 g of a.i./ha): 80%
- Alopecurus (Alopecurus; 125 g of a.i./ha): 30%
- Polygonum (Polygonum; 125 g of a.i./ha): 30%
- Polygonum (Polygonum; 250 g of a.i./ha): 30%
- Setaria (Setaria): 80%
- Matricaria (Matricaria; 125 g of a.i./ha): 90%
- Digitaria (Digitaria; 125 g of a.i./ha): 80%
- pest or weed control at 125 g/ha (Abutilon; 125 g of a.i./ha): 0%
- pest or weed control at 250 g/ha (Abutilon; 250 g of a.i./ha): 40%
- Echinochloa (Echinochloa): 80%
- Chenopodium (pre-emergence test) (weeds; Table A20, 125 g of a.i./ha): 30
- Datura (pre-emergence test) (weeds; Table A20, 125 g of a.i./ha): 30
- Galium (pre-emergence test) (weeds; Table A20, 125 g of a.i./ha): 0
- Ipomoea (pre-emergence test) (weeds; Table A20, 125 g of a.i./ha): 0
- Datura (pre-emergence test) (weeds; Table A20, 250 g of a.i./ha): 50
- Galium (pre-emergence test) (weeds; Table A20, 250 g of a.i./ha): 20
- Ipomoea (pre-emergence test) (weeds; Table A20, 250 g of a.i./ha): 20
- Lolium (pre-emergence test) (weeds; Table A20, 250 g of a.i./ha): 90
- Cyperus (Cyperus; 125 g of a.i./ha): 60%
- Cyperus (Cyperus; 250 g of a.i./ha): 60%

Compound: CC(C)N.O=C(O)CNCP(=O)(O)O [glyphosate-isopropylammonium, N-phosphonomethyl-glycine (isopropylammonium salt)]
- Galium (Galium): 0%
